Values quoted from earlier work in US9808427B2, “Swallowable N-acetylcysteine tablets” (ZAMBON S.P.A., priority 2013, dated 2017).

Experiments:
[1] = 1200 mg per day (2 tablets of 600 mg)

CC(=O)N[C@@H](CS)C(=O)O [NAC, N-acetylcysteine]
time to achieve pharmacologically active concentrations in pulmonary tissue and bronchial secretions (after taking the drug): approximately 3 hours
elimination of NAC and its metabolites (in vivo): essentially via the kidneys
absorption in the gastrointestinal tract (oral administration, man): quickly and completely absorbed
efficacy and safety in long-term treatment of COPD [1]: effective and safe
